The subject of one test is OCI-LY10 cells. In words: OCI-LY-10 CTG cell viability assay (EC50). Format: cell-based. Conditions: Homo sapiens, 96 h, CellTiter-Glo cell viability, 4 days incubation, top concentration 10 μM, read-out: OCI-LY10 IRAK4 EC50. How it is done: A CTG cell viability assay using OCI-LY-10 cells was run to determine compound-mediated cell viability (EC50).
Compound-mediated viability effect on OCI-LY10 was quantitatively determined using the CellTiter-Glo® Luminescent Cell Viability Assay kit from Promega (Catalog number G7570) following manufacturer's recommended procedures. […] Compounds were then added to the assay plate with final top concentration of 10 μM and 1:3 dilution series with total of 9 doses. The final DMSO concentration was normalized to 0.2%. The assay plates were incubated at 37° C. for 4 days under 5% CO2. Then the assay plate was equilibrated at room temperature for 10 minutes. […] The data was then analyzed by software Prism 7.0 from GraphPad and the dose response curves were fit using a three-parameter logistic equation to calculate EC50.

Another test addresses T1, IRAK4 (Homo sapiens, UniProt Q9NWZ3).
T1 sequence (Q9NWZ3 1-460): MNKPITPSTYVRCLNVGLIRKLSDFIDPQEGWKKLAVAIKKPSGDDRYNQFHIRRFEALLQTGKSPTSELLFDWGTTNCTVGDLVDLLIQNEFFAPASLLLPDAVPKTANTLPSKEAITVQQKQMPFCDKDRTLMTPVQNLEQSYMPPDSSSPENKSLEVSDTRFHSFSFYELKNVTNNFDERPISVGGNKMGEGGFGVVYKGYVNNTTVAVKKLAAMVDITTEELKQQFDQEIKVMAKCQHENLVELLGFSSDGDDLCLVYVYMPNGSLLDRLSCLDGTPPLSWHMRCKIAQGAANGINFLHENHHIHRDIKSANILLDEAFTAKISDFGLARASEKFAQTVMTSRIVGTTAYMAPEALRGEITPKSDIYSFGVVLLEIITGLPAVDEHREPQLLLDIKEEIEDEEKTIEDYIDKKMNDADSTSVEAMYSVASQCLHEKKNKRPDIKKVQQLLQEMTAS
Kind of test: OCI-LY-10 MSD assay for IRAK4 DC50. Format: cell-based. On the set-up: endogenous in cells; host or cells: OCI-LY10. Conditions: OCI-LY10 cells, 4 hr incubation, concentration required to degrade 50% of protein. In a few lines: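 OCI-Ly10 cells were exposed to compound for 4 hr across a 3-fold, 8-point dilution series. Lysates were made in RIPA buffer, and IRAK4 remaining was measured by MSD sandwich immunoassay with anti-IRAK4 capture and detection antibodies. DC50 was taken from a four-parameter logistic fit.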

These results are taken from US10874743B2, “IRAK degraders and uses thereof” (Kymera Therapeutics, Inc., priority 2017, dated 2020).

Structures are written as SMILES.

Turning to `Cn1c(=O)n([C@@H]2CCC(=O)NC2=O)c2ccc(CCCCOCCCCNCc3ccc(-n4cc(NC(=O)c5coc(-c6ccnc(NCC7CC7)c6)n5)c(C(F)F)n4)cc3)cc21` (single isomer, unassigned) [I-700], the EC50 with OCI-LY10 cells lay in the range of 50 to 100 nM. Further, at IRAK4, the DC50 is less than 50 nM.
In the same order, the values of `Cn1cc(NC(=O)c2coc(-c3ccnc(NCC(F)(F)F)c3)n2)c(C(=O)NCCOCCOCCOCCOCCOCCNc2cccc3c2C(=O)N(C2CCC(=O)NC2=O)C3=O)n1` (centres unmarked) [I-449] are greater than 1000 nM and greater than 1000 nM.
Turning to `CN(CCOCCOCCOCCNc1cccc2c1C(=O)N(C1CCC(=O)NC1=O)C2=O)C(=O)c1nn(C)cc1NC(=O)c1coc(-c2ccnc(NCC(F)(F)F)c2)n1` (centres unmarked) [I-456], the EC50 in the test on OCI-LY10 cells is greater than 1000 nM. On IRAK4, this compound yielded a DC50 greater than 1000 nM.
In the case of `Cn1c(=O)n(C2CCC(=O)NC2=O)c2ccc(CCCOCCCNC(=O)c3ccc(-n4cc(NC(=O)c5coc(-c6ccnc(NCC7CC7)c6)n5)c(C(F)F)n4)cc3)cc21` (centres unmarked) [I-459], in the test on OCI-LY10 cells, the EC50 was less than 50 nM. The DC50 at IRAK4 is less than 50 nM.
For `Cn1c(=O)n(C2CCC(=O)NC2=O)c2cccc(CCCOCCCNC(=O)c3ccc(-n4cc(NC(=O)c5coc(-c6ccnc(NCC7CC7)c6)n5)c(C(F)F)n4)cc3)c21` (centres unmarked) [I-460], in the test on OCI-LY10 cells, the EC50 is less than 50 nM. This compound also came in with a DC50 at IRAK4 of less than 50 nM.
Turning to `Cn1c(=O)n(C2CCC(=O)NC2=O)c2ccc(CCCOCCOCCNC(=O)c3ccc(-n4cc(NC(=O)c5coc(-c6ccnc(NCC7CC7)c6)n5)c(C(F)F)n4)cn3)cc21` (centres unmarked) [I-461], the EC50 in the test on OCI-LY10 cells was less than 50 nM. In addition, the DC50 on IRAK4 is less than 50 nM.
On to `O=C1CCC(n2c(=O)oc3cc(CCCOCCOCCNC(=O)c4ccc(-n5cc(NC(=O)c6coc(-c7ccnc(NCC8CC8)c7)n6)c(C(F)F)n5)cc4)ccc32)C(=O)N1` (centres unmarked) [I-462], for which, in the test on OCI-LY10 cells, the EC50 is less than 50 nM. On IRAK4, this compound displayed a DC50 of less than 50 nM.
In the case of `Cn1cc(NC(=O)c2coc(-c3ccnc(NCC(F)(F)F)c3)n2)c(C(=O)NCCOCCOCCOCCCc2ccc3c(c2)n(C)c(=O)n3C2CCC(=O)NC2=O)n1` (centres unmarked) [I-463], the EC50 in the test on OCI-LY10 cells was greater than 1000 nM. The same compound gave a DC50 at IRAK4 greater than 1000 nM.
In the case of `Cn1c(=O)n(C2CCC(=O)NC2=O)c2ccc(CCCOCCOCCNC(=O)c3ccc(-n4cc(NC(=O)c5coc(-c6ccnc(NCC7CC7)c6)n5)c(C(F)F)n4)cc3F)cc21` (centres unmarked) [I-470], the EC50 with OCI-LY10 cells is less than 50 nM. Moreover, at IRAK4, the DC50 is less than 50 nM.
With `Cn1cc(NC(=O)c2coc(-c3ccnc(NCC(F)(F)F)c3)n2)c(-c2cncc(C(=O)NCCOCCOCCCc3cccc4c3n(C)c(=O)n4C3CCC(=O)NC3=O)c2)n1` (centres unmarked) [I-472], in the test with OCI-LY10 cells, the EC50 is greater than 1000 nM. Also, the DC50 on IRAK4 is greater than 1000 nM.
Take `C=C1N(C)c2c(CCCOCCCN(C)C(=O)c3ccc(-n4cc(NC(=O)c5coc(-c6ccnc(NCC7CC7)c6)n5)c(C(F)F)n4)cc3)cccc2N1C1CCC(=O)NC1=O` (centres unmarked) [I-473]: the EC50 with OCI-LY10 cells is 50 to 100 nM. The DC50 on IRAK4 was less than 50 nM.
Take `O=C1CCC(n2c(=O)oc3c(CCCOCCCNC(=O)c4ccc(-n5cc(NC(=O)c6coc(-c7ccnc(NCC8CC8)c7)n6)c(C(F)F)n5)cc4)cccc32)C(=O)N1` (centres unmarked) [I-475]: in the test on OCI-LY10 cells, the EC50 is less than 50 nM. Further, the DC50 on IRAK4 is less than 50 nM.
As for `CN(CCCOCCCc1cccc2c1oc(=O)n2C1CCC(=O)NC1=O)C(=O)c1ccc(-n2cc(NC(=O)c3coc(-c4ccnc(NCC5CC5)c4)n3)c(C(F)F)n2)cc1` (centres unmarked) [I-476], the EC50 with OCI-LY10 cells lay within 100 to 500 nM. The compound also yielded a DC50 on IRAK4 of less than 50 nM.
Take `CN(CCCOCCCc1ccc2c(c1)n(C)c(=O)n2C1CCC(=O)NC1=O)C(=O)c1ccc(-n2cc(NC(=O)c3coc(-c4ccnc(NCC5CC5)c4)n3)c(C(F)F)n2)cc1` (centres unmarked) [I-477]: the EC50 in the test with OCI-LY10 cells is less than 50 nM. Also, on IRAK4, the DC50 was less than 50 nM.
Regarding `CC(C)(CCOCCCc1cccc2c1oc(=O)n2C1CCC(=O)NC1=O)NC(=O)c1ccc(-n2cc(NC(=O)c3coc(-c4ccnc(NCC5CC5)c4)n3)c(C(F)F)n2)cc1` (centres unmarked) [I-478], the EC50 in the test on OCI-LY10 cells was 100 to 500 nM. Also, on IRAK4, the DC50 lay in the range of 50 to 100 nM.
In the same order, the values of `O=C1CCC(n2c(=O)oc3c(CCCOCCCNC(=O)c4ccc(-n5cc(NC(=O)c6coc(-c7ccnc(NCC8CC8)c7)n6)c(C(F)F)n5)cn4)cccc32)C(=O)N1` (centres unmarked) [I-479] are less than 50 nM and less than 50 nM.
